Values after ≈ are worked out from the molar mass of the structure shown. Values joined by “and” are separate entries in the source; they are usually repeats but may differ in a detail not shown here. Equal entries are not always repeated. Where two headings read alike, the source gives them in different places.
Tested on: Staphylococcus aureus fluoroquinolone-susceptible
Assay: MIC, 25 ocular isolates, broth microdilution (Example 8)
Assay type: cell-based
Experimental: • Mueller-Hinton Broth in tubes was inoculated with 25 ocular isolates of Staphylococcus aureus fluoroquinolone-susceptible, Staphylococcus aureus fluoroquinolone-resistant, Staphylococcus epidermidis (Coagulase-negative Staphylococcus) fluoroquinolone-susceptible, Staphylococcus epidermidis (Coagulase-negative Staphylococcus) fluoroquinolone-resistant, Pseudomonas aeruginosa and Serratia marcescens, plus two controls (Staphylococcus aureus and E. coli) and incubated at 37° C. overnight on a shaker set at 250 rpm.
On the day of testing, a 640 μg/ml (1280 μg/ml for Serratia marcescens and Pseudomonas aeruginosa) concentration was prepared from a 1% stock solution in 0.01% acetic acid, 0.2% BSA in polypropylene tubes.
Serial doubling dilutions in 0.01% acetic acid, 0.2% BSA in 96 well polypropylene plates, which are used as reservoirs for the inoculation of the test plates, were carried out to obtain serial dilutions of test agents at 10 times the required test concentrations: 640, 320, 160, 80, 40, 20, 10, 5, 2.5, 1.25, and 0.625 μg/ml (1280, 640, 320, 160, 80, 40, 20, 10, 5, 2.5, and 1.25 μg/ml for Serratia marcescens and Pseudomonas aeruginosa).
Ten μl of diluted 10×test agents was added to each well of one row of the 96 well polypropylene plates from column 2 to column 12 (column 1 is a control for bacteria alone, with no peptide). Test agent concentrations in columns 2-12 were as follows: 64, 32, 16, 8, 4, 2, 1, 0.5, 0.25, 0.125, and 0.0625 μg/ml (128, 64, 32, 16, 8, 4, 2, 1, 0.5, 0.25, and 0.125 μg/ml for Serratia marcescens and Pseudomonas aeruginosa). The same peptide was in each of the 8 rows. One plate contained dilutions of one test agent and 8 bacterial isolates.
On the day of testing, the overnight bacterial broth cultures of Staphylococcus aureus fluoroquinolone-susceptible, Staphylococcus aureus fluoroquinolone-resistant, Staphylococcus epidermidis (Coagulase-negative Staphylococcus) fluoroquinolone-susceptible, Staphylococcus epidermidis (Coagulase-negative Staphylococcus) fluoroquinolone-resistant, Serratia marcescens, and Pseudomonas aeruginosa, plus two controls (Staphylococcus aureus and E. coli) were diluted in 5 ml of trypticase soy broth to yield turbidity equal to a 0.5 McFarland standard. The final inoculum for MIC testing for Staphylococcus aureus fluoroquinolone-susceptible, Staphylococcus aureus fluoroquinolone-resistant, Staphylococcus epidermidis (Coagulase-negative Staphylococcus) fluoroquinolone-susceptible, Staphylococcus epidermidis (Coagulase-negative Staphylococcus) fluoroquinolone-resistant, Serratia marcescens, and Pseudomonas aeruginosa was achieved by placing 0.05 ml of the turbidity adjusted sample to 5 ml of Mueller-Hinton broth.
Ninety μl of the bacterial suspensions was dispensed in each well from column 1 to column 12. Each bacterial isolate was placed in one row of a 96 well polypropylene plate containing the test agents. The plates were placed on shaker at 15 minutes at room temperature, and then incubated at 37° C. overnight. MICs were determined visually as the lowest concentration of drug that inhibits visible bacterial growth.

[1] = 25 isolates, Summary of Results
[2] = Staphylococcus aureus, 25 ocular isolates, read-out: Median MIC
[3] = Staphylococcus aureus, isolate 1—E402, read-out: MIC
[4] = Staphylococcus aureus, isolate 2—E1512, read-out: MIC
[5] = Staphylococcus aureus, isolate 3—E253, read-out: MIC
[6] = Staphylococcus aureus, isolate 4—K1518, read-out: MIC
[7] = Staphylococcus aureus, isolate 5—K1525, read-out: MIC
[8] = Staphylococcus aureus, isolate 6—K1663, read-out: MIC
[9] = Staphylococcus aureus, isolate 7—K1648, read-out: MIC
[10] = Staphylococcus aureus, isolate 8—K1646, read-out: MIC
[11] = Staphylococcus aureus, isolate 9—K1642, read-out: MIC
[12] = Staphylococcus aureus, isolate 10—K1638, read-out: MIC
[13] = Staphylococcus aureus, isolate 11—K1628, read-out: MIC
[14] = Staphylococcus aureus, isolate 12—K1618, read-out: MIC
[15] = Staphylococcus aureus, isolate 13—K1617, read-out: MIC
[16] = Staphylococcus aureus, isolate 14—K1611, read-out: MIC
[17] = Staphylococcus aureus, isolate 15—K1607, read-out: MIC
[18] = Staphylococcus aureus, isolate 16—K1600, read-out: MIC
[19] = Staphylococcus aureus, isolate 17—K1591, read-out: MIC
[20] = Staphylococcus aureus, isolate 18—K1585, read-out: MIC
[21] = Staphylococcus aureus, isolate 19—K1583, read-out: MIC
[22] = Staphylococcus aureus, isolate 20—K1574, read-out: MIC
[23] = Staphylococcus aureus, isolate 21—K1566, read-out: MIC
[24] = Staphylococcus aureus, isolate 22—K1551, read-out: MIC
[25] = Staphylococcus aureus, isolate 23—K1545, read-out: MIC
[26] = Staphylococcus aureus, isolate 24—K1540, read-out: MIC
[27] = Staphylococcus aureus, isolate 25—K1530, read-out: MIC
[28] = Staphylococcus aureus, n=25 per group, read-out: Median MIC
[29] = Staphylococcus aureus, 25 isolates, Summary of Results, read-out: MIC50
[30] = Staphylococcus aureus, 25 isolates, Summary of Results, read-out: MIC90
[31] = Staphylococcus aureus, 25 isolates, Summary of Results, read-out: Median MIC

Row | SMILES | MIC50 (25 isolates, Row 13) [µg/mL] | MIC90 (25 isolates, Row 22) [µg/mL] | Range of MICs [1] [µg/mL] | MIC [2] [µg/mL] | MIC [3] [µg/mL] | MIC [4] [µg/mL] | MIC [5] [µg/mL] | MIC [6] [µg/mL] | MIC [7] [µg/mL] | MIC [8] [µg/mL] | MIC [9] [µg/mL] | MIC [10] [µg/mL] | MIC [11] [µg/mL] | MIC [12] [µg/mL] | MIC [13] [µg/mL] | MIC [14] [µg/mL] | MIC [15] [µg/mL] | MIC [16] [µg/mL] | MIC [17] [µg/mL] | MIC [18] [µg/mL] | also measured
1 | N=C(N)NCCCCC(=O)Nc1cc(C(F)(F)F)cc(NC(=O)c2cc(C(=O)Nc3cc(C(F)(F)F)cc(NC(=O)CCCCNC(=N)N)c3O[C@@H]3CCNC3)ncn2)c1O[C@@H]1CCNC1 [Oligomer 4] | 0.25 (≈ 0.267 µM) | 0.5 (≈ 0.534 µM) | 0.125 to 0.5 | ≤ 0.25 | 0.25 (≈ 0.267 µM) | 0.25 (≈ 0.267 µM) | 0.25 (≈ 0.267 µM) | 0.25 (≈ 0.267 µM) | 0.125 (≈ 0.133 µM) | 0.5 (≈ 0.534 µM) | 0.25 (≈ 0.267 µM) | 0.25 (≈ 0.267 µM) | 0.5 (≈ 0.534 µM) | 0.5 (≈ 0.534 µM) | 0.25 (≈ 0.267 µM) | 0.5 (≈ 0.534 µM) | 0.25 (≈ 0.267 µM) | 0.25 (≈ 0.267 µM) | 0.25 (≈ 0.267 µM) | 0.25 (≈ 0.267 µM) | MIC, sorted list for MIC50 and MIC90 Determinations (QSSA-A) (25 isolates sorted ascending, Row 1-25, in µg/mL): 0.250 and 0.500; MIC [19]: 0.25 µg/mL (≈ 0.267 µM); MIC [20]: 0.25 µg/mL (≈ 0.267 µM); MIC [21]: 0.25 µg/mL (≈ 0.267 µM); MIC [22]: 0.25 µg/mL (≈ 0.267 µM); MIC [23]: 0.25 µg/mL (≈ 0.267 µM); MIC [24]: 0.25 µg/mL (≈ 0.267 µM); MIC [25]: 0.25 µg/mL (≈ 0.267 µM); MIC [26]: 0.25 µg/mL (≈ 0.267 µM); MIC [27]: 0.25 µg/mL (≈ 0.267 µM); MIC [28]: 0.25 µg/mL (≈ 0.267 µM); MIC50 [29]: 0.25 µg/mL (≈ 0.267 µM); MIC90 [30]: 0.25 µg/mL (≈ 0.267 µM); MIC [31]: 0.25 µg/mL (≈ 0.267 µM); MIC50 (n=25 per group): 0.25 µg/mL (≈ 0.267 µM); MIC90 (n=25 per group): 0.25 µg/mL (≈ 0.267 µM); Range of MICs (n=25 per group): 0.125 to 0.5 µg/mL
2 | N=C(N)NCCCCC(=O)Nc1cc(C(F)(F)F)cc(NC(=O)c2cnc(C(=O)Nc3cc(C(F)(F)F)cc(NC(=O)CCCCNC(=N)N)c3SCCN)cn2)c1SCCN [Oligomer 5] | 0.25 (≈ 0.273 µM) | 0.25 (≈ 0.273 µM) | 0.125 to 0.5 | ≤ 0.25 | 0.5 (≈ 0.545 µM) | 0.25 (≈ 0.273 µM) | 0.25 (≈ 0.273 µM) | 0.125 (≈ 0.136 µM) | 0.125 (≈ 0.136 µM) | 0.125 (≈ 0.136 µM) | 0.125 (≈ 0.136 µM) | 0.25 (≈ 0.273 µM) | 0.25 (≈ 0.273 µM) | 0.25 (≈ 0.273 µM) | 0.25 (≈ 0.273 µM) | 0.125 (≈ 0.136 µM) | 0.25 (≈ 0.273 µM) | 0.25 (≈ 0.273 µM) | 0.25 (≈ 0.273 µM) | 0.125 (≈ 0.136 µM) | MIC [19]: 0.5 µg/mL (≈ 0.545 µM); MIC [20]: 0.25 µg/mL (≈ 0.273 µM); MIC [21]: 0.25 µg/mL (≈ 0.273 µM); MIC [22]: 0.25 µg/mL (≈ 0.273 µM); MIC [23]: 0.25 µg/mL (≈ 0.273 µM); MIC [24]: 0.125 µg/mL (≈ 0.136 µM); MIC [25]: 0.25 µg/mL (≈ 0.273 µM); MIC [26]: 0.25 µg/mL (≈ 0.273 µM); MIC [27]: 0.5 µg/mL (≈ 0.545 µM); MIC [28]: 0.25 µg/mL (≈ 0.273 µM); MIC50 [29]: 0.25 µg/mL (≈ 0.273 µM); MIC90 [30]: 0.5 µg/mL (≈ 0.545 µM); MIC [31]: 0.25 µg/mL (≈ 0.273 µM); MIC50 (n=25 per group): 0.25 µg/mL (≈ 0.273 µM); MIC90 (n=25 per group): 0.5 µg/mL (≈ 0.545 µM); Range of MICs (n=25 per group): 0.125 to 0.5 µg/mL
